Test results from patent US7026510B2, “Quaternary ammonium salts of omega-aminoalkylamides of r-2-aryl-propionic acids and pharmaceutical compositions containing them” (Dompé S.p.A., priority 2001, dated 2006).

Tested on: C5a-induced chemotaxis of PMN
Experiment: Inhibition of C5a-induced chemotaxis of human PMNs (microchamber)
Format: cell-based
Settings: compound C = 10^−6 M, C5a 10^−9 M, 60 min at 37° C.
Experimental: The compounds of the invention of formula (I) were evaluated in vitro for their ability to inhibit chemotaxis of polymorphonucleate leukocytes (hereinafter referred to as PMNs) and monocytes induced by the fractions of the complement C5a and C5a-desArg. For this purpose, to isolate the PMNs from heparinized human blood, taken from healthy adult volunteers, mononucleates were removed by means of sedimentation on dextran (according to the procedure disclosed by W. J. Ming et al., J. Immunol., 138, 1469, 1987) and red blood cells by a hypotonic solution. The cell vitality was calculated by exclusion with Trypan blue, whilst the ratio of the circulating polymorphonucleates was estimated on the cytocentrifugate after staining with Diff Quick.
Human recombinant fractions C5a and C5a-desArg (Sigma) were used as stimulating agents in the chemotaxis experiments, giving practically identical results.
The lyophilized C5a was dissolved in a volume of HBSS containing 0.2% bovin serum albumin BSA so thus to obtain a stock solution having a concentration of 10^−5 M to be diluted in HBSS to a concentration of 10^−9 M, for the chemotaxis assays.
In the chemotaxis experiments, the PMNs were incubated with the compounds of the invention of formula (I) for 15′ at 37° C. in an atmosphere containing 5% CO2.
The chemotactic activity of the C5a was evaluated on human circulating polymorphonucleates (PMNs) resuspended in HBSS at a concentration of 1.5×10^6 PMNs per mL.
During the chemotaxis assay (according to W. Falket et al., J. Immunol. Methods, 33, 239, 1980) PVP-free filters with a porosity of 5 μm and microchambers suitable for replication were used.
The compounds of the invention in formula (I) were evaluated at a concentration ranging between 10^−6 and 10^−10 M; for this purpose they were added, at the same concentration, both to the lower pores and the upper pores of the microchamber. The wells in the lower part contain the solution of C5a or the simple carrier, those in the upper part contain the suspension of PMNs.
Inhibition of C5a-induced chemotactic activity by the individual compounds of the invention of formula (I) was evaluated by incubating the microchamber for the chemotaxis for 60 min at 37° C. in an atmosphere containing 5% CO2.
By way of example, the inhibition data of the chemotaxis of PMN (C=10^−6 M) of some representative compounds of the invention are reported in the following table: […]

With `CC(C)Cc1ccc([C@@H](C)C(=O)NCCC[N+]2(C)CCCCC2)cc1.[I-]` [R(−)-{3-[2-(4′-isobutylphenyl)-propionylamino]-propyl}-1-methyl-piperidinium iodide] the “% INHIBITION (C = 10^−6 M)” value was 24 ± 4%.
For “R(−)-2-[(4′-isobutylphenyl)-propionylamino]-1,1-dimethylpiperidinium iodide”, the “% INHIBITION (C = 10^−6 M)” value was 18 ± 9%.
`CC(C)Cc1ccc([C@@H](C)C(=O)NCCC[N+](C)(C)Cc2ccccc2)cc1.[I-]` [R(−)-{3-[2-(4′-isobutylphenyl)-propionylamino]-propyl}-(N-benzyl)-N,N-dimethylammonium iodide] was tested, and the “% INHIBITION (C = 10^−6 M)” value was 22 ± 4%.
With `CC(C)Cc1ccc([C@@H](C)C(=O)NCCC[N+](C)(C)CC2CCCCC2)cc1.CS(=O)(=O)[O-]` [R(−)-{3-[2-(4′-isobutylphenyl)-propionylamino]-propyl}-N-cyclohexylmethyl-N,N-dimethyl-ammonium metaneosulfonate] the “% INHIBITION (C = 10^−6 M)” value was 57 ± 4%.
`C[C@@H](C(=O)NCCC[N+](C)(C)C)c1ccccc1Nc1c(Cl)cccc1Cl` [(R)-{3-{2-[2-(2,6-dichlorophenylamino)-phenyl]-propionylamino}-propyl)-trimethylammonium iodide] gave an inhibition at 1 µM (Homo sapiens, 1 h) of 62 ± 3%.
For `CC(C)Cc1ccc([C@@H](C)C(=O)NCCC[N+](C)(C)C)cc1.[I-]` [R(−)-{3-[2-(4′-isobutylphenyl)-propionylamino]-propyl}-trimetilammonium iodide], the “% INHIBITION (C = 10^−6 M)” value was 53 ± 6%.
